Results published in US20150057246A1, “SILYL-CONTAINING HETEROCYCLIC COMPOUNDS AND METHODS OF USE THEREOF FOR THE TREATMENT OF VIRAL DISEASES” (priority 2012, published 2015).
Read-outs that look alike come from different tables or passages of the source.

Experiments:
HCV 1a replicon = assay: Cell-based HCV replicon assay (TaqMan), genotype 1a replicon; conditions: HCV genotype 1a replicon cells, replicon RNA by real time PCR, day 3, EC90 = concentration for ΔCT=3.2 over baseline
Procedure, shortened: (§1)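 Replicon cells seeded at 5000 cells/well with compound as 10 serial 2-fold dilutions (top 250 μM to 1 μM), 0.5% DMSO, 5% FBS, 3 days. NS5B replicon RNA quantified by multiplex TaqMan RT-PCR against GAPDH. EC50 = concentration giving ΔCT=1 over baseline; EC90 = ΔCT=3.2, from sigmoid fit.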

HCV 1b replicon = assay: Cell-based HCV replicon assay (TaqMan), genotype 1b replicon; conditions: HCV genotype 1b replicon cells, replicon RNA by real time PCR, day 3, EC90 = concentration for ΔCT=3.2 over baseline
Experimental: Measurement of inhibition by compounds of the present invention was performed using the HCV replicon system. Several different replicons encoding different HCV genotypes or mutations were used. In addition, potency measurements were made using different formats of the replicon assay, including different ways of measurements and different plating formats. See Jan M. Vrolijk et al., A replicons-based bioassay for the measurement of interferons in patients with chronic hepatitis C, 110 J. VIROLOGICAL METHODS 201 (2003); Steven S. Carroll et al., Inhibition of Hepatitis C Virus RNA Replication by 2′-Modified Nucleoside Analogs, 278(14) J. BIOLOGICAL CHEMISTRY 11979 (2003). However, the underlying principles are common to all of these determinations, and are outlined below.
TaqMan®-Based Assay Protocol:
Compounds of the present invention were assayed for cell-based anti-HCV activity using the following protocol. Replicon cells were seeded at 5000 cells/well in 96-well collagen I-coated Nunc plates in the presence of the test compound. Various concentrations of test compound, typically in 10 serial 2-fold dilutions, were added to the assay mixture, with the starting concentration ranging from 250 μM to 1 μM. The final concentration of DMSO was 0.5%, fetal bovine serum was 5%, in the assay media. Cells were harvested on day 3 by the addition of 1× cell lysis buffer (Ambion cat #8721). The replicon RNA level was measured using real time PCR (TaqMan® assay). The amplicon was located in 5B. The PCR primers were: 5B.2F, ATGGACAGGCGCCCTGA (SEQ. ID NO. 1); 5B.2R, […] (SEQ. ID NO. 2); the probe sequence was FAM-labeled CACGCCATGCGCTGCGG (SEQ. ID NO. 3). GAPDH RNA was used as endogenous control and was amplified in the same reaction as NS5B (multiplex PCR) using primers and VIC-labeled probe recommended by the manufacturer (PE Applied Biosystem). The real-time […] reactions were run on ABI PRISM 7900HT Sequence Detection System using the following program: 48° C. for 30 minutes, 95° C. for 10 minutes, 40 cycles of 95° C. for 15 sec, 60° C. for 1 minute. The ΔCT values (CT5B-CTGAPDH) were plotted against the concentration of test compound and fitted to the sigmoid dose-response model using XLfit4 (MDL). EC50 was defined as the concentration of inhibitor necessary to achieve ΔCT=1 over the projected baseline; EC90 the concentration necessary to achieve ΔCT=3.2 over the baseline. Alternatively, to quantitate the absolute amount of replicon RNA, a standard curve was established by including serially diluted T7 transcripts of replicon RNA in the Taqman assay. All TaqMan® reagents were from PE Applied Biosystems. Such an assay procedure was described in detail in e.g. Malcolm et al., Antimicrobial Agents and Chemotherapy 50: 1013-1020 (2006).
HCV replicon EC50 assay data for various replicons and mutants was calculated for selected compounds of the present invention using this method and is provided in the tables above herein.

HCV 1a Y93H replicon = assay: Cell-based HCV replicon assay (TaqMan), 1a Y93H mutant replicon; conditions: EC90 = concentration for ΔCT=3.2 over baseline
Procedure, shortened: as §1

HCV 2b replicon = assay: Cell-based HCV replicon assay (TaqMan), genotype 2b replicon; conditions: Hepatitis C virus, 72 h, read-out: 2b EC90, HCV genotype 2b replicon cells, replicon RNA by real time PCR, day 3; EC90 = concentration for ΔCT=3.2 over baseline
Procedure, shortened: as §1

[1] = Hepatitis C virus, 72 h, read-out: 1a Y93H EC90, HCV 1a Y93H mutant replicon cells, replicon RNA by real time PCR, day 3

SMILES	EC90 (HCV 1a replicon; Hepatitis C virus, 72 h) [nM]	EC90 (HCV 1b replicon; Hepatitis C virus, 72 h) [nM]	EC90 (HCV 1a Y93H replicon; [1]) [nM]	EC90 (HCV 2b replicon) [nM]	EC90 (HCV 1a replicon) [nM]	EC90 (HCV 1b replicon) [nM]	EC90 (HCV 1a Y93H replicon; read-out: 1a Y93H EC90, HCV 1a Y93H mutant replicon cells, replicon RNA by real time PCR, day 3) [nM]
COC(=O)N[C@@H](CC1CC1)C(=O)N1C[Si](C)(C)C[C@H]1c1nc2ccc3cc(-c4ccc(-c5cnc([C@@H]6CCCN6C(=O)[C@@H](NC(=O)OC)C(C)C)[nH]5)cc4)ccc3c2[nH]1 [Compound 77]	0.56	0.03	> 1000	221			
CCN(CC)[C@H](C(=O)N1C[Si](C)(C)C[C@H]1c1nc2ccc3cc(-c4ccc(-c5cnc([C@@H]6CCCN6C(=O)[C@@H](NC(=O)OC)C(C)C)[nH]5)cc4)ccc3c2[nH]1)c1ccccc1 [Compound 78]	0.14	0.03	514	6.5			
COC(=O)N[C@H](C(=O)N1C[Si](C)(C)C[C@H]1c1nc(Cl)c(-c2ccc(-c3ccc4c(ccc5nc([C@@H]6CCCN6C(=O)[C@@H](NC(=O)OC)C(C)C)[nH]c54)c3)cc2)[nH]1)C(C)C [Compound 96]	0.24	0.69	368	263			
COC(=O)N[C@H](C(=O)N1C[Si](C)(C)C[C@H]1c1nc2ccc3cc(-c4ccc(-c5cnc([C@@H]6C[C@H]7C[C@H]7N6C(=O)[C@@H](NC(=O)OC)C(C)C)[nH]5)cc4)ccc3c2[nH]1)C(C)C [Compound 105]				301	0.26	0.02	605
COC(=O)N[C@H](C(=O)N1C[Si](C)(C)C[C@H]1c1nc2ccc3cc(-c4ccc(-c5nc(Cl)c([C@@H]6C[C@H]7C[C@H]7N6C(=O)[C@@H](NC(=O)OC)C(C)C)[nH]5)cc4)ccc3c2[nH]1)C(C)C [Compound 108]	0.04	0.02	151	543			
COC(=O)N[C@H](C(=O)N1CCC[C@H]1c1ncc(-c2ccc3cc(-c4ccc5c(ccc6nc([C@@H]7C[Si](C)(C)CN7C(=O)[C@@H](NC(=O)OC)C(C)C)[nH]c65)c4)ccc3c2)[nH]1)C(C)C [Compound 112]	0.046	> 1	> 100	> 100			
COC(=O)N[C@H](C(=O)N1CCC[C@H]1c1ncc(-c2ccc3cc(-c4ccc5c(ccc6nc([C@@H]7C[Si](C)(C)CN7C(=O)[C@@H](NC(=O)OC)C7CC7)[nH]c65)c4)ccc3c2)[nH]1)C1CC1 [Compound 114]	0.06	> 1	> 100	> 100			
COC(=O)N[C@@H](C(=O)N1CCC[C@@H]1c1ncc(-c2ccc3cc(-c4ccc5c(ccc6nc([C@H]7C[Si](C)(C)CN7C(=O)OC(C)(C)C)[nH]c65)c4)ccc3c2)[nH]1)C(C)C [Compound 116]	> 1	> 1	> 100	> 100			
COC(=O)NC(C(=O)N1C[Si](C)(C)C[C@H]1c1nc2ccc3cc(-c4ccc5cc(-c6cnc([C@@H]7CCCN7C(=O)[C@H](NC(=O)OC)C(C)C)[nH]6)ccc5c4)ccc3c2[nH]1)[C@@H](C)OC (stereo partly shown) [Compound 117]	0.039	> 1	> 100	> 100			
COC(=O)N[C@H](C(=O)N1C[Si](C)(C)C[C@@H]1c1nc2ccc3cc(-c4ccc5cc(-c6cnc([C@H]7CCCN7C(=O)[C@H](NC(=O)OC)C(C)C)[nH]6)ccc5c4)ccc3c2[nH]1)C1CCOCC1 [Compound 118]	0.023	> 1	> 100	> 100			
